Laboratory results published in the supplement of paper PMC10307832.

How the values were obtained:
Assay in all cases: relative viability (nuclei count vs DMSO), 5 days (fraction); higher = more cells survive
Bortezomib + Palbociclib = compound: CC(C)C[C@H](NC(=O)[C@H](Cc1ccccc1)NC(=O)c1cnccn1)B(O)O [Bortezomib] + CC(=O)c1c(C)c2cnc(Nc3ccc(N4CCNCC4)cn3)nc2n(C2CCCC2)c1=O [Palbociclib] (partner 0.5 µM)
Outline: (§1)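 Relative viability equals treated-well nuclei counts divided by vehicle-well nuclei counts. Counts came from 4× images of lung cancer cell lines grown in 1536-well plates for 5 days after pin-tool dosing on the day after seeding. Dosing used one drug alone or a fixed anchor-drug dose plus five library-drug doses (not always all listed) in √10 steps, and values are medians of duplicate plates.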

Bortezomib + AZD7762 = compound: CC(C)C[C@H](NC(=O)[C@H](Cc1ccccc1)NC(=O)c1cnccn1)B(O)O [Bortezomib] + NC(=O)Nc1cc(-c2cccc(F)c2)sc1C(=O)N[C@H]1CCCNC1 [AZD7762] (partner 0.2 µM)
Outline: as §1

[1] = compound: CC1=CC(=NN1)NC2=CC(=NC(=N2)/C=C/C3=CC=CC=C3)N4CCN(CC4)C + CC(C)C[C@H](NC(=O)[C@H](Cc1ccccc1)NC(=O)c1cnccn1)B(O)O [Bortezomib] (partner 0.002 µM)
Outline: as §1

Obatoclax + Decitabine = compound: COC1=CC(c2cc3ccccc3[nH]2)=N/C1=C\c1[nH]c(C)cc1C [Obatoclax] + Nc1ncn([C@H]2C[C@H](O)[C@@H](CO)O2)c(=O)n1 [Decitabine] (partner 2 µM)
Outline: as §1

Cell Line	relative viability (Bortezomib + Palbociclib; first compound 0.0002 µM)	relative viability (Bortezomib + Palbociclib; first compound 0.000632 µM)	relative viability (Bortezomib + Palbociclib; first compound 0.002 µM)	relative viability (Bortezomib + Palbociclib; first compound 0.006325 µM)	relative viability (Bortezomib + Palbociclib; first compound 0.02 µM)	relative viability (Bortezomib + AZD7762; first compound 0.0002 µM)	relative viability (Bortezomib + AZD7762; first compound 0.000632 µM)	relative viability (Bortezomib + AZD7762; first compound 0.002 µM)	relative viability (Bortezomib + AZD7762; first compound 0.006325 µM)	relative viability (Bortezomib + AZD7762; first compound 0.02 µM)	relative viability ([1]; first compound 0.08 µM)	relative viability ([1]; first compound 0.253 µM)	relative viability ([1]; first compound 0.8 µM)	relative viability ([1]; first compound 2.53 µM)	relative viability ([1]; first compound 8 µM)	relative viability (Obatoclax + Decitabine; first compound 0.01 µM)	relative viability (Obatoclax + Decitabine; first compound 0.03162 µM)	relative viability (Obatoclax + Decitabine; first compound 0.1 µM)	relative viability (Obatoclax + Decitabine; first compound 0.3162 µM)	relative viability (Obatoclax + Decitabine; first compound 1 µM)
201T	0.339	0.367	0.37	0.33	0.218	0.602	0.684	0.59	0.661	0.38	1.11	1.17	1.06	1.02	1.01	0.814	0.731	0.868	0.857	0.92
A549	–	–	–	–	–	–	–	–	–	–	–	–	–	–	–	0.205	0.122	–	0.282	0.309
A-427	0.508	0.469	0.53	0.272	0.169	0.719	0.872	0.763	0.197	0.146	1.1	1.06	1.08	0.635	0.361	0.528	0.525	0.491	0.614	0.504
ABC-1	0.619	0.709	0.269	0.229	0.328	–	0.712	0.184	0.223	0.191	0.418	0.268	0.303	0.257	0.205	1.38	1.31	0.999	1.17	1.07
BEN	0.443	0.461	0.489	0.445	0.236	0.667	0.788	0.73	0.578	0.389	0.854	0.992	0.831	0.523	0.197	0.756	0.553	0.393	0.624	0.659
CAL-12T	0.561	0.447	0.384	0.182	0.104	0.608	0.596	0.602	0.576	0.271	0.979	0.952	0.645	0.268	0.164	–	–	–	–	–
COR-L23	0.308	0.274	0.183	0.0534	0.0546	–	–	–	–	–	0.972	1.29	1	0.196	0.0895	0.478	0.404	0.488	0.235	0.194
COR-L 105	0.439	0.381	0.345	0.378	0.355	–	–	–	–	–	0.744	0.988	0.76	0.263	0.231	0.68	0.665	0.634	0.525	0.407
Calu-6	–	–	–	–	–	–	–	–	–	–	0.912	0.947	0.764	0.174	0.13	–	–	–	–	–
ChaGo-K-1	0.956	0.903	0.942	0.382	0.136	0.847	0.716	0.886	0.691	0.164	0.994	1.2	1.15	0.285	0.241	0.497	0.476	0.506	0.509	0.516
EBC-1	–	–	–	–	–	–	–	–	–	–	0.523	0.557	0.427	0.264	0.158	–	–	–	–	–
EKVX	0.361	0.401	0.28	0.171	0.079	0.72	0.741	0.845	0.286	0.0785	0.987	1.33	1.2	0.824	0.141	0.343	–	0.313	0.368	0.324
EMC-BAC-2	0.524	0.484	0.466	0.285	0.205	1.09	1.04	1.04	0.573	0.436	1.05	1.1	1.01	0.813	0.135	0.95	0.977	–	0.98	0.541
EPLC-272H	0.307	0.29	0.304	0.111	0.0584	0.188	0.163	1.2	0.153	0.0636	0.952	0.914	0.956	0.531	0.279	0.368	0.349	0.43	0.314	0.303
H3255	0.322	0.335	0.285	0.256	0.243	0.867	–	0.655	0.517	0.328	0.878	0.854	0.895	0.745	0.198	0.595	0.581	–	0.589	0.623
HARA	0.185	0.253	0.288	0.166	0.152	0.257	0.311	0.577	0.178	0.0909	0.971	1.31	1.09	0.352	0.109	0.52	0.593	0.528	0.462	0.405
HCC-15	0.622	0.769	0.689	0.104	0.0904	1.04	1.14	1.17	0.763	0.127	0.981	0.961	1	0.377	0.235	0.678	0.568	0.509	0.615	0.434
HCC-44	1.02	1.02	0.943	0.759	0.278	0.959	0.985	1.01	1.04	0.239	0.805	0.968	0.854	0.735	0.25	0.968	0.643	0.966	0.902	0.84
IA-LM	–	–	–	–	–	–	–	–	–	–	0.74	0.897	1.14	0.463	0.121	–	–	–	–	–
LK-2	0.649	0.685	0.415	0.125	0.133	0.335	0.387	0.533	0.449	0.0966	–	–	–	–	–	0.365	0.242	0.335	0.268	0.395
